From patent US4665075A, “Derivatives of hydroxy- or amino-substituted (piperidinylalkyl)quinazolines” (Janssen Pharmaceutica N.V., priority 1985, dated 1987)

Tests used:
[1] = test system: serotonin-induced contraction of the caudal artery of the rat; experiment: Test 1: Antagonistic activity on the effect of serotonin on the caudal artery of the rat; conditions: rat caudal artery strips; serotonin 40 ng/ml; measured 5 minutes after adding the drug
Description: Test 1: Antagonistic activity on the effect of serotonin on the caudal artery of the rat
Caudal arteries from fasted male rats (210-235 g) were used in the test. Two helical strips having a length of 5-6 cm and a width of 2 mm were obtained from each artery and mounted vertically in a 100 ml organ bath containing an oxygenated Krebs-Henseleit solution. Submaximal contractions of the arterial strips were produced by adding single doses of serotonin (40 ng/ml) to the organ bath for 2 minutes with each time an interval of 10 minutes. The amplitude of the contraction is measured before and 5 minutes after adding the drug. After washing out, the agonist was added again three times in order to see whether the contraction is restored and normalized.
In this connection the ED50 -values are the minimal concentrations of the concerned drugs which reduce the amplitude of the contraction to at least 50% of its normal value.

[2] = test system: gastric lesions induced by compound 48/80; experiment: Test 2: Effects in gastric lesion tests; lesions induced by compound 48/80; type: in vivo, rat (male, Wistar inbred strain); conditions: oral, 2 hours before compound 48/80 1 mg/kg i.v.; stomachs inspected 4 hours later
Description: Test 2: Effects in gastric lesion tests
The shock, followed by dead, can be avoided if the rats are pretreated with a classical H1 antagonist.
Male rats of a Wistar inbred strain, weighing 220-250 g, were starved overnight, water being available ad libitum. The test compounds were administered orally as a solution or as a suspension in aqueous medium. A control rat and a "blank" rat receive the test compound. One hour later 5-[4-(diphenylmethyl)-1-piperazinyl-methyl]-1-methyl-1H-benzimidazole-2-methanol is adhministered subcutaneously to all rats at the dose of 2.5 mg/kg. […] Five minutes after the injection the intensity of purple-blue coloration (cyanosis) of the extremities was scored as 0 (absent), + (moderate) or ++ (intense). Four hours after the intravenous injection of compound 48/80 the rats were decapitated and the stomachs were removed. Subsequently the stomachs were inspected for distension and contents (blood, fluid, food) and thoroughly rinsed. The macroscopic lesions were scored from 0 to +++, 0 corrsponding to complete absence of visible lesions and the highest score corresponding to reddish rough patches covering more than half the glandular area.
The compounds listed in table 1 are not given for the purpose of limiting the invention thereto but only to exemplify the useful pharmacological activities of all the compounds within the scope of formula (I).

[3] = test system: cyanosis, gastric lesions and shock induced by compound 48/80; conditions: rats injected with compound 48/80; cited from earlier work

## Nc1ccc2c(=O)n(CCCCN3CCC(C(=O)c4ccc(F)cc4)CC3)c(=O)[nH]c2c1 [Compound 8, 7-amino-3-[4-[4-(4-fluorobenzoyl)-1-piperidinyl]butyl]-2,4(1H,3H)-quinazolinedione]
[1]
  Caudal artery ED50 (minimal concentration which reduces the amplitude of the serotonin-induced contraction to at least 50% of its normal value): 0.32 ng/mL
[2]
  Gastric lesion ED50 (dose at which distension of the stomach and lesions in the glandular area are completely absent in 50% of the test rats): 0.04 mg/kg

## Nc1ccc2c(=O)n(CCN3CCC(C(=O)c4ccc(F)cc4)CC3)c(=S)[nH]c2c1 [Compound 9, 7-amino-3-[2-[4-(4-fluorobenzoyl)-1-piperidinyl]ethyl]-2,3-dihydro-2-thioxo-4(1H)-quinazolinone]
[1]
  Caudal artery ED50 (minimal concentration which reduces the amplitude of the serotonin-induced contraction to at least 50% of its normal value): 0.18 ng/mL
[2]
  Gastric lesion ED50 (dose at which distension of the stomach and lesions in the glandular area are completely absent in 50% of the test rats): 0.005 mg/kg

## Nc1ccc2c(=O)n(CCCCN3CCC(C(=O)c4ccc(F)cc4)CC3)c(=S)[nH]c2c1 [Compound 11, 7-amino-3-[4-[4-(4-fluorobenzoyl)-1-piperidinyl]butyl]-2,3-dihydro-2-thioxo-4(1H)-quinazolinone]
[1]
  Caudal artery ED50 (minimal concentration which reduces the amplitude of the serotonin-induced contraction to at least 50% of its normal value): < 0.63 ng/mL
[2]
  Gastric lesion ED50 (dose at which distension of the stomach and lesions in the glandular area are completely absent in 50% of the test rats): 0.63 mg/kg

## Nc1ccc2c(=O)n(CCN3CCC(C(=O)c4ccc(F)cc4)CC3)c(=O)[nH]c2c1 [Compound 12, 7-amino-3-[2-[4-(4-fluorobenzoyl)-1-piperidinyl]ethyl]-2,4(1H,3H)-quinazolinedione]
[1]
  Caudal artery ED50 (minimal concentration which reduces the amplitude of the serotonin-induced contraction to at least 50% of its normal value): < 0.63 ng/mL
[2]
  Gastric lesion ED50 (dose at which distension of the stomach and lesions in the glandular area are completely absent in 50% of the test rats): 0.04 mg/kg

## CC(=O)Nc1ccc2c(=O)n(CCCCN3CCC(C(=O)c4ccc(F)cc4)CC3)c(=O)[nH]c2c1 [Compound 18, N-[3-[4-[4-(4-fluorobenzoyl)-1-piperidinyl]butyl]-1,2,3,4-tetrahydro-2,4-dioxo-7-quinazolinyl]-acetamide]
[1]
  Caudal artery ED50 (minimal concentration which reduces the amplitude of the serotonin-induced contraction to at least 50% of its normal value): 0.32 ng/mL
[2]
  Gastric lesion ED50 (dose at which distension of the stomach and lesions in the glandular area are completely absent in 50% of the test rats): 0.08 mg/kg

## CC(=O)Nc1ccc2c(=O)n(CCN3CCC(C(=O)c4ccc(F)cc4)CC3)c(=S)[nH]c2c1 [Compound 19, N-[3-[2-[4-(4-fluorobenzoyl)-1-piperidinyl]ethyl]-1,2,3,4-tetrahydro-4-oxo-2-thioxo-7-quinazolinyl]acetamide]
[1]
  Caudal artery ED50 (minimal concentration which reduces the amplitude of the serotonin-induced contraction to at least 50% of its normal value): 0.32 ng/mL
[2]
  Gastric lesion ED50 (dose at which distension of the stomach and lesions in the glandular area are completely absent in 50% of the test rats): 0.01 mg/kg

## CC(=O)Nc1ccc2c(=O)n(CCN3CCC(C(=O)c4ccc(F)cc4)CC3)c(=O)[nH]c2c1 [Compound 22]
[1]
  Caudal artery ED50 (minimal concentration which reduces the amplitude of the serotonin-induced contraction to at least 50% of its normal value): 0.37 ng/mL
[2]
  Gastric lesion ED50 (dose at which distension of the stomach and lesions in the glandular area are completely absent in 50% of the test rats): 0.04 mg/kg

## CN(C)CCCSc1ccccc1NC(=O)/C=C/c1ccccc1 [cinanserin]
[3]
  prevention of the abnormal gastric distension: prevent completely
  prevention of the cyanosis of ears and extremities: prevent completely
  prevention of the lesions in the glandular area of the stomach: prevent completely

## CN1CCC(=C2c3ccccc3C=Cc3ccccc32)CC1 [cyproheptadine]
[3]
  prevention of the abnormal gastric distension: prevent completely
  prevention of the cyanosis of ears and extremities: prevent completely
  prevention of the lesions in the glandular area of the stomach: prevent completely

## CN1C[C@H](CNC(=O)OCc2ccccc2)C[C@@H]2c3cccc4c3c(cn4C)C[C@H]21 [metergoline]
[3]
  prevention of the abnormal gastric distension: prevent completely
  prevention of the cyanosis of ears and extremities: prevent completely
  prevention of the lesions in the glandular area of the stomach: prevent completely

## CC[C@@H](CO)NC(=O)[C@@H]1C=C2c3cccc4c3c(cn4C)C[C@H]2N(C)C1 [methysergide]
[3]
  prevention of the abnormal gastric distension: prevent completely
  prevention of the cyanosis of ears and extremities: prevent completely
  prevention of the lesions in the glandular area of the stomach: prevent completely

## CN1CCN2c3ccccc3Cc3ccccc3C2C1 (centres unmarked) [mianserin]
[3]
  prevention of the abnormal gastric distension: prevent completely
  prevention of the cyanosis of ears and extremities: prevent completely
  prevention of the lesions in the glandular area of the stomach: prevent completely

## NC(=O)C1(N2CCCCC2)CCN(CCCC(=O)c2ccc(F)cc2)CC1 [pipamperone]
[3]
  prevention of the abnormal gastric distension: prevent completely
  prevention of the cyanosis of ears and extremities: prevent completely
  prevention of the lesions in the glandular area of the stomach: prevent completely

## CN1CCC(=C2c3ccccc3CCc3sccc32)CC1 [pizotifen]
[3]
  prevention of the abnormal gastric distension: prevent completely
  prevention of the cyanosis of ears and extremities: prevent completely
  prevention of the lesions in the glandular area of the stomach: prevent completely

## O=C(CCCN1CCC2(CC1)C(=O)NCN2c1ccccc1)c1ccc(F)cc1 [spiperone]
[3]
  prevention of the abnormal gastric distension: prevent completely
  prevention of the cyanosis of ears and extremities: prevent completely
  prevention of the lesions in the glandular area of the stomach: prevent completely
